IC50 data for 30 compounds are collected here from patent publication US10954216B2, “BMP-signal-inhibiting compound” (RIKEN, priority 2016, dated 2021).

The IC50 is the midpoint of a concentration-inhibition curve.

The first experiment concerns BMP signal in MDA-231-D-BREFluc/Rluc cells. The experiment can be described thus: BMP signal inhibitory effect (AlphaScreen SureFire SMAD1 p-Ser463/465, BMP-6 stimulation). The experiment is classed as cell-based.
Details: not given
The procedure, abridged: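 MDA-231-D-BREFluc/Rluc cells were pretreated with compound for 2 h at 37° C, then stimulated with BMP-6 for 30 min. SMAD1 p-Ser463/465 in lysates was measured by AlphaScreen SureFire.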
Consider `CCn1cc(-c2ccnc(Nc3ccc(C4CC5CCC(C4)N5CCOC)cc3)n2)c(-c2cccnc2)n1` (stereo not drawn) [Example 85, 4-(1-Ethyl-3-(pyridin-3-yl)-1H-pyrazol-4-yl)-N-(4-(8-(2-methoxyethyl)-8-azabicyclo [3.2.1]octan-3-yl)phenyl)pyrimidin-2-amine], for which the half-inhibitory concentration (IC50) amounted to 7.3 nM. With `CCn1cc(-c2ccnc(Nc3ccc(N4CC5CCC(C4)N5CCOC)cc3)n2)c(-c2cccnc2)n1` [Example 86, 4-(1-Ethyl-3-(pyridin-3-yl)-1H-pyrazol-4-yl)-N-(4-(8-(2-methoxyethyl)-3,8-diazabicyclo[3.2.1]octan-3-yl)phenyl)pyrimidin-2-amine], inhibition was half-maximal at 12.9 nM (IC50).

Still in this experiment, the particulars now being: BMP-6 stimulated MDA-231-D-BREFluc/Rluc cells, phospho-SMAD1 AlphaScreen; read-out: IC50.
Consider `CN1CCCC1CN1CCN(c2ccc(Nc3nccc(-c4cn(C5COC5)nc4-c4cccnc4)n3)cc2)CC1` (stereo not drawn) [Example 79, N-(4-(4-((1-Methylpyrrolidin-2-yl)methyl)piperazin-1-yl)phenyl)-4-(1-(oxetan-3-yl)-3-(pyridin-3-yl)-1H-pyrazol-4-yl)pyrimidin-2-amine], for which the IC50 stood at 35.7 nM. On the same count and under the same terms, for `COCCn1cc(-c2ccnc(Nc3ccc(N4CCN(CC5CCCN5C)CC4)cc3)n2)c(-c2cccnc2)n1` (stereo not drawn) [Example 80, 4-(1-(2-Methoxyethyl)-3-(pyridin-3-yl)-1H-pyrazol-4-yl)-N-(4-(4-((1-methylpyrrolidin-2-yl)methyl)piperazin-1-yl)phenyl)pyrimidin-2-amine] the value was 26.7 nM; for `COCCN1CCN(c2ccc(Nc3nccc(-c4cn(CC(C)(C)O)nc4-c4cccnc4)n3)cc2)CC1` [Example 81, 1-(4-(2-((4-(4-(2-Methoxyethyl)piperazin-1-yl)phenyl)amino)pyrimidin-4-yl)-3-(pyridin-3-yl)-1H-pyrazol-1-yl)-2-methylpropan-2-ol], 21 nM. `COCCN1CCN(c2ccc(Nc3nccc(-c4cn(Cc5ccccc5C#N)nc4-c4cccnc4)n3)cc2)CC1` [Example 82]: the IC50 turned out to be 18.4 nM. As to `CCn1cc(-c2ccnc(Nc3ccc(N4CCN(CCOC)CC4)c(C#N)c3)n2)c(-c2cccnc2)n1` [Example 83, 5-((4-(1-Ethyl-3-(pyridin-3-yl)-1H-pyrazol-4-yl)pyrimidin-2-yl)amino)-2-(4-(2-methoxyethyl)piperazin-1-yl)benzonitrile], the IC50 turned out to be 14.3 nM. On the same count and under the same terms, for `CCn1cc(-c2ccnc(Nc3ccc(N4CCN(CCOC)CC4)nc3)n2)c(-c2cccnc2)n1` [Example 84, 4-(1-Ethyl-3-(pyridin-3-yl)-1H-pyrazol-4-yl)-N-(6-(4-(2-methoxyethyl)piperazin-1-yl)pyridin-3-yl)pyrimidin-2-amine] the value was 19.3 nM; for `CCn1cc(-c2ccnc(Nc3ccc(N4CCN(CC(N)=O)CC4)cc3)n2)c(-c2cccnc2)n1` [Example 87, 2-(4-(4-((4-(1-Ethyl-3-(pyridin-3-yl)-1H-pyrazol-4-yl)pyrimidin-2-yl)amino)phenyl)piperazin-1-yl)acetamide], 29.7 nM; for `CCn1cc(-c2ccnc(Nc3ccc4c(c3)CN(CC3CCCO3)CC4)n2)c(-c2cccnc2)n1` (stereo not drawn) [Example 88, N-(4-(1-Ethyl-3-(pyridin-3-yl)-1H-pyrazol-4-yl)pyrimidin-2-yl)-2-((tetrahydrofuran-2-yl)methyl)-1,2,3,4-tetrahydroisoquinolin-7-amine], 5.5 nM. Turning to `CCn1cc(-c2ccnc(Nc3ccc4c(c3)CCN(CC3CCCO3)C4)n2)c(-c2cccnc2)n1` (stereo not drawn) [Example 89, N-(4-(1-Ethyl-3-(pyridin-3-yl)-1H-pyrazol-4-yl)pyrimidin-2-yl)-2-((tetrahydrofuran-2-yl)methyl)-1,2,3,4-tetrahydroisoquinolin-6-amine], the IC50 stood at 5.7 nM. Regarding `CCn1cc(-c2ccnc(Nc3ccc4c(c3)CCN(CC(N)=O)C4)n2)c(-c2cccnc2)n1` [Example 90, 2-(6-((4-(1-Ethyl-3-(pyridin-3-yl)-1H-pyrazol-4-yl)pyrimidin-2-yl)amino)-3,4-dihydroisoquinolin-2(1H)-yl)acetamide], the half-maximal inhibitory concentration (IC50) was 21.6 nM. On to `CCn1cc(-c2ccnc(Nc3ccc4c(c3)OCCN(CCOC)C4)n2)c(-c2cccnc2)n1` [Example 91, N-(4-(l-Ethyl-3-(pyridin-3-yl)-1H-pyrazol-4-yl)pyrimidin-2-yl)-4-(2-methoxyethyl)-2,3,4,5-tetrahydrobenzo[f][1,4] oxazepin-8-amine], for which the IC50 came to 21.3 nM. The same measure, in the same setting: next, `CCn1cc(-c2ccnc(Nc3ccc(OC4CN(CCOC)C4)cc3)n2)c(-c2cccnc2)n1` [Example 92, 4-(1-Ethyl-3-(pyridin-3-yl)-1H-pyrazol-4-yl)-N-(4-((1-(2-methoxyethyl)azetidin-3-yl)oxy)phenyl) pyrimidin-2-amine]: 11.9 nM; `CCn1cc(-c2ccnc(Nc3ccc4c(c3)CCN(CCOC)CC4)n2)c(-c2cccnc2)n1` [Example 93, N-(4-(1-Ethyl-3-(pyridin-3-yl)-1H-pyrazol-4-yl)pyrimidin-2-yl)-3-(2-methoxyethyl)-2,3,4,5-tetrahydro-1H-benzo [d] azepin-7-amine]: 3.8 nM. With `CCn1cc(-c2ccnc(Nc3ccc(N4CCCN(CCOC)CC4)cc3)n2)c(-c2cccnc2)n1` [Example 94, 4-(1-Ethyl-3-(pyridin-3-yl)-1H-pyrazol-4-yl)-N-(4-(4-(2-methoxyethyl)-1,4-diazepan-1-yl)phenyl)pyrimidin-2-amine], the IC50 is 24.3 nM. `CCn1cc(-c2ccnc(Nc3ccc4c(c3)CCN(C3COC3)C4)n2)c(-c2cccnc2)n1` [Example 95, N-(4-(1-Ethyl-3-(pyridin-3-yl)-1H-pyrazol-4-yl)pyrimidin-2-yl)-2-(oxetan-3-yl)-1,2,3,4-tetrahydroisoquinolin-6-amine]: the IC50 is 14.8 nM. On the same count and under the same terms, for `CCn1cc(-c2ccnc(Nc3ccc(N4CCN(CC5CC(C)(C)O5)CC4)cc3)n2)c(-c2cccnc2)n1` (stereo not drawn) [Example 96, N-(4-(4-((4,4-dimethyloxetan-2-yl)methyl)piperazin-1-yl)phenyl)-4-(1-ethyl-3-(pyridin-3-yl)-1H-pyrazol-4-yl)pyrimidin-2-amine] the value was 20.9 nM; for `CCn1cc(-c2ccnc(Nc3ccc(N4CCN(CC5CCOC5)CC4)cc3)n2)c(-c2cccnc2)n1` (stereo not drawn) [Example 97, 4-(1-Ethyl-3-(pyridin-3-yl)-1H-pyrazol-4-yl)-N-(4-(4-((tetrahydrofuran-3-yl)methyl)piperazin-1-yl)phenyl)pyrimidin-2-amine], 15.2 nM; for `CCn1cc(-c2ccnc(Nc3ccc(N4CCN(CC5(C)COC5)CC4)cc3)n2)c(-c2cccnc2)n1` [Example 98, 4-(1-ethyl-3-(pyridin-3-yl)-1H-pyrazol-4-yl)-N-(4-(4-((3-methyloxetan-3-yl)methyl)piperazin-1-yl)phenyl)pyrimidin-2-amine], 23.4 nM.

Consider `CCn1cc(-c2ccnc(Nc3ccc(N4CCN(CC5COC5)CC4)cc3)n2)c(-c2cccnc2)n1` [Example 99, 4-(1-Ethyl-3-(pyridin-3-yl)-1H-pyrazol-4-yl)-N-(4-(4-(oxetan-3-ylmethyl)piperazin-1-yl)phenyl)pyrimidin-2-amine], for which the IC50 came to 20 nM. Same read-out and setting: for `CCn1cc(-c2ccnc(Nc3ccc(C4CCCN(CCOC)C4)cc3)n2)c(-c2cccnc2)n1` (stereo not drawn) [Example 100, 4-(1-Ethyl-3-(pyridin-3-yl)-1H-pyrazol-4-yl)-N-(4-(1-(2-methoxyethyl)piperidin-3-yl)phenyl)pyrimidin-2-amine] the value was 18.6 nM; for `COCCN1CCN(c2ccc(Nc3nccc(-c4cn(CC5COC5)nc4-c4cccnc4)n3)cc2)CC1` [Example 102, N-(4-(4-(2-Methoxyethyl)piperazin-1-yl)phenyl)-4-(1-(oxetan-3-ylmethyl)-3-(pyridin-3-yl)-1H-pyrazol-4-yl)pyrimidin-2-amine], 50.4 nM; for `c1cncc(-c2nn(C3COC3)cc2-c2ccnc(Nc3ccc(N4CCN(CC5CC5)CC4)cc3)n2)c1` [Example 103, N-(4-(4-(Cyclopropylmethyl)piperazin-1-yl)phenyl)-4-(1-(oxetan-3-yl)-3-(pyridin-3-yl)-1H-pyrazol-4-yl)pyrimidin-2-amine], 10.4 nM. Take `CCn1cc(-c2ccnc(Nc3ccc(N4CCN(CC(O)COC)CC4)cc3)n2)c(-c2cccnc2)n1` (stereo not drawn) [Example 105, 1-(4-(4-((4-(1-Ethyl-3-(pyridin-3-yl)-1H-pyrazol-4-yl)pyrimidin-2-yl)amino)phenyl)piperazin-1-yl)-3-methoxypropan-2-ol]: the IC50 was determined as 33.7 nM. Regarding `CCn1cc(-c2ccnc(Nc3ccc4c(c3)CN(CC(C)(C)O)CC4)n2)c(-c2cccnc2)n1` [Example 106, 1-(7-((4-(1-Ethyl-3-(pyridin-3-yl)-1H-pyrazol-4-yl)pyrimidin-2-yl)amino)-3,4-dihydroisoquinolin-2(1H)-yl)-2-methylpropan-2-ol], the IC50 came to 3.5 nM. For `COCCn1cc(-c2ccnc(Nc3ccc(OC4CN(CC(C)(C)O)C4)cc3)n2)c(-c2cccnc2)n1` [Example 107, 1-(3-(4-((4-(1-(2-Methoxyethyl)-3-(pyridin-3-yl)-1H-pyrazol-4-yl)pyrimidin-2-yl)amino)phenoxy)azetidin-1-yl)-2-methylpropan-2-ol], the IC50 was 24.4 nM. Regarding `CCn1cc(-c2ccnc(Nc3ccc(OC4CN(CC(C)(C)O)C4)cc3)n2)c(-c2cccnc2)n1` [Example 108, 1-(3-(4-((4-(1-Ethyl-3-(pyridin-3-yl)-1H-pyrazol-4-yl)pyrimidin-2-yl)amino)phenoxy)azetidin-1-yl)-2-methylpropan-2-ol], the IC50 is 13.3 nM. Still for that read-out and setting: next, `CCn1cc(-c2ccnc(Nc3ccc4c(c3)CCN(CC(O)COC)C4)n2)c(-c2cccnc2)n1` (stereo not drawn) [Example 109, 1-(6-((4-(1-Ethyl-3-(pyridin-3-yl)-1H-pyrazol-4-yl)pyrimidin-2-yl)amino)-3,4-dihydroisoquinolin-2 (1H)-yl)-3-methoxypropan-2-ol]: 5.7 nM.

On to `COCC(O)CN1CCN(c2ccc(Nc3nccc(-c4cn(C5COC5)nc4-c4cccnc4)n3)cc2)CC1` (stereo not drawn) [Example 110, 1-Methoxy-3-(4-(4-((4-(1-(oxetan-3-yl)-3-(pyridin-3-yl)-1H-pyrazol-4-yl)pyrimidin-2-yl)amino)phenyl)piperazin-1-yl)propan-2-ol], for which the IC50 is 32.8 nM.
